Laboratory results taken from patent US11377441B2, “Covalent inhibitors of KRAS” (Araxes Pharma LLC, priority 2017, dated 2022).

What follows are compounds tested against T1, KRAS G12C 1-169, his-tagged protein, GDP-loaded (Homo sapiens, UniProt P01116, G12C) (assay: Biochemical assay: covalent modification of KRAS G12C measured by mass spectrometry (RapidFire/TOF or Q-Exactive)). Details: Example 14 comparative biochemical data; tested according to the above procedures (Example 1).
T1 construct: KRAS G12C 1-169, his-tagged protein, GDP-loaded
Assay type: binding
Method in brief: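 Intact-mass readout (TOF or Q-Exactive, charge-envelope deconvolution) gives percent covalent adduct from modified and unmodified species. Compound at 10, 30 or 100 μM was incubated at room temperature for 10 min to 24 h with 2 μM or 0.5 μM GDP-bound KRAS G12C 1-169 in Hepes/NaCl/MgCl2 buffer, then acid-quenched.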

**Q.** For C=CC(=O)N1C[C@H](C)N(c2nc(N3CC(N(C)C)C3)nc3c(F)c(-c4c(C)ccc5[nH]ncc45)c(Cl)cc23)C[C@H]1C (atropisomer, axis not shown) [reference compound], which binding activity is on record?
**A.** Its binding activity is 71%.

Same assay, conditions: covalent binding to (modification of) KRAS G12C after a ten minute incubation period

**Q.** C=CC(=O)N1C[C@H](C)N(c2nc(N3CC(N(C)C)C3)nc3c(F)c(-c4c(C)ccc5[nH]nc(C6CC6)c45)c(Cl)cc23)C[C@@H]1C (atropisomer, axis not shown) [Compound 255, 1-((2S,5S)-4-((R)-6-chloro-7-(3-cyclopropyl-5-methyl-1H-indazol-4-yl)-2-(3-(dimethylamino)azetidin-1-yl)-8-fluoroquinazolin-4-yl)-2,5-dimethylpiperazin-1-yl)prop-2-en-1-one] was tested. Which Binding % did it give?
**A.** The Binding % was “+ (+ indicates binding activity greater than 0% and up to 50%)”.

**Q.** For C=CC(=O)N1C[C@H](C)N(c2nc(OC[C@H]3CCCN3C)nc3c(F)c(-c4c(C)ccc5cnn(C)c45)c(Cl)cc23)C[C@H]1C (atropisomer, axis not shown) [Compound 261, 1-((2R,5S)-4-((S)-6-chloro-7-(1,6-dimethyl-1H-indazol-7-yl)-8-fluoro-2-(((R)-1-methylpyrrolidin-2-yl)methoxy)quinazolin-4-yl)-2,5-dimethylpiperazin-1-yl)prop-2-en-1-one], which Binding % is on record?
**A.** The Binding % was “+++ (+++ indicates binding activity greater than 80%)”.

**Q.** With C=CC(=O)N1C[C@H](C)N(c2nc(N3CC(N(C)C)C3)nc3c(F)c(-c4cccc5[nH]ncc45)c(Cl)cc23)C[C@H]1C [Compound 1, 1-((2R,5S)-4-(6-chloro-2-(3-(dimethylamino)azetidin-1-yl)-8-fluoro-7-(1H-indazol-4-yl)quinazolin-4-yl)-2,5-dimethylpiperazin-1-yl)prop-2-en-1-one] as the compound, how does the Binding % read?
**A.** Its Binding % is “++ (++ indicates binding activity from 50 to 80%)”.

**Q.** C=CC(=O)N1C[C@H](C)N(c2nc(N3CC(N(C)C)C3)nc3c(F)c(-c4cccc5[nH]nc(N)c45)c(Cl)cc23)C[C@H]1C [Compound 2, 1-((2R,5S)-4-(7-(3-amino-1H-indazol-4-yl)-6-chloro-2-(3-(dimethylamino)azetidin-1-yl)-8-fluoroquinazolin-4-yl)-2,5-dimethylpiperazin-1-yl)prop-2-en-1-one] was tested. Which Binding % did it give?
**A.** Its Binding % is “++ (++ indicates binding activity from 50 to 80%)”.

**Q.** With C=CC(=O)N1C[C@H](C)N(c2nc(N3CC(N(C)C)C3)nc3c(F)c(-c4c(C)ccc5[nH]nc(N)c45)c(Cl)cc23)C[C@H]1C [Compound 3, 1-((2R,5S)-4-(7-(3-amino-5-methyl-1H-indazol-4-yl)-6-chloro-2-(3-(dimethylamino)azetidin-1-yl)-8-fluoroquinazolin-4-yl)-2,5-dimethylpiperazin-1-yl)prop-2-en-1-one] as the compound, how does the Binding % read?
**A.** Its Binding % is “+++ (+++ indicates binding activity greater than 80%)”.

**Q.** For C=CC(=O)N1C[C@H](C)N(c2nc(N3CC(N(C)C)C3)nc3c(F)c(-c4c(C)ccc5[nH]nc(NC)c45)c(Cl)cc23)C[C@H]1C [Compound 13, 1-((2R,5S)-4-(6-chloro-2-(3-(dimethylamino)azetidin-1-yl)-8-fluoro-7-(5-methyl-3-(methylamino)-1H-indazol-4-yl)quinazolin-4-yl)-2,5-dimethylpiperazin-1-yl)prop-2-en-1-one], which Binding % is on record?
**A.** The Binding % was “++ (++ indicates binding activity from 50 to 80%)”.

**Q.** C=CC(=O)N1C[C@H](C)N(c2nc(N3CC(N(C)C)C3)nc3c(F)c(-c4c(C)ccc5c(N)n[nH]c45)c(Cl)cc23)C[C@H]1C [Compound 22, 1-((2R,5S)-4-(7-(3-amino-6-methyl-1H-indazol-7-yl)-6-chloro-2-(3-(dimethylamino)azetidin-1-yl)-8-fluoroquinazolin-4-yl)-2,5-dimethylpiperazin-1-yl)prop-2-en-1-one] was tested. Which Binding % did it give?
**A.** The Binding % was “+ (+ indicates binding activity greater than 0% and up to 50%)”.

**Q.** C=CC(=O)N1C[C@H](C)N(c2nc(N3CC(N(C)C)C3)nc3c(F)c(-c4c(C)ccc5[nH]nc(Cl)c45)c(Cl)cc23)C[C@H]1C [Compound 23, 1-((2R,5S)-4-(6-chloro-7-(3-chloro-5-methyl-1H-indazol-4-yl)-2-(3-(dimethylamino)azetidin-1-yl)-8-fluoroquinazolin-4-yl)-2,5-dimethylpiperazin-1-yl)prop-2-en-1-one] was tested. Which Binding % did it give?
**A.** The Binding % was “+++ (+++ indicates binding activity greater than 80%)”.

**Q.** How did the Binding % turn out when C=CC(=O)N1C[C@H](C)N(c2nc(N3CC(N(C)C)C3)nc3c(F)c(-c4ccc(F)c5[nH]ncc45)c(Cl)cc23)C[C@H]1C [Compound 29, 1-((2R,5S)-4-(6-chloro-2-(3-(dimethylamino)azetidin-1-yl)-8-fluoro-7-(7-fluoro-1H-indazol-4-yl)quinazolin-4-yl)-2,5-dimethylpiperazin-1-yl)prop-2-en-1-one] was run?
**A.** The Binding % was “+ (+ indicates binding activity greater than 0% and up to 50%)”.

**Q.** For C=CC(=O)N1C[C@H](C)N(c2nc(N3CC(N(C)C)C3)nc3c(F)c(-c4ccc(Cl)c5[nH]ncc45)c(Cl)cc23)C[C@H]1C [Compound 30, 1-((2R,5S)-4-(6-chloro-7-(7-chloro-1H-indazol-4-yl)-2-(3-(dimethylamino)azetidin-1-yl)-8-fluoroquinazolin-4-yl)-2,5-dimethylpiperazin-1-yl)prop-2-en-1-one], which Binding % is on record?
**A.** The Binding % was “+ (+ indicates binding activity greater than 0% and up to 50%)”.

**Q.** Which Binding % does the source give for C=CC(=O)N1C[C@H](C)N(c2nc(N3CC(N(C)C)C3)nc3c(F)c(-c4c(C)ccc5[nH]nc(NC6CCC6)c45)c(Cl)cc23)C[C@H]1C [Compound 36, 1-((2R,5S)-4-(6-chloro-7-(3-(cyclobutylamino)-5-methyl-1H-indazol-4-yl)-2-(3-(dimethylamino)azetidin-1-yl)-8-fluoroquinazolin-4-yl)-2,5-dimethylpiperazin-1-yl)prop-2-en-1-one] here?
**A.** Its Binding % is “+ (+ indicates binding activity greater than 0% and up to 50%)”.

**Q.** For C=CC(=O)N1C[C@H](C)N(c2nc(N3CC(N(C)C)C3)nc3c(F)c(-c4c(C)ccc5[nH]nc(NC(C)C)c45)c(Cl)cc23)C[C@H]1C [Compound 39, 1-((2R,5S)-4-(6-chloro-2-(3-(dimethylamino)azetidin-1-yl)-8-fluoro-7-(3-(isopropylamino)-5-methyl-1H-indazol-4-yl)quinazolin-4-yl)-2,5-dimethylpiperazin-1-yl)prop-2-en-1-one], which Binding % is on record?
**A.** Its Binding % is “+ (+ indicates binding activity greater than 0% and up to 50%)”.

**Q.** With C=CC(=O)N1C[C@H](C)N(c2nc(N3CC(N(C)C)C3)nc3c(F)c(-c4c(C)ccc5[nH]nc(Br)c45)c(Cl)cc23)C[C@H]1C [Compound 40, 1-((2R,5S)-4-(7-(3-bromo-5-methyl-1H-indazol-4-yl)-6-chloro-2-(3-(dimethylamino)azetidin-1-yl)-8-fluoroquinazolin-4-yl)-2,5-dimethylpiperazin-1-yl)prop-2-en-1-one] as the compound, how does the Binding % read?
**A.** The Binding % was “+++ (+++ indicates binding activity greater than 80%)”.

**Q.** With C=CC(=O)N1[C@H](C)CN(c2nc(N3CC(N(C)C)C3)nc3c(F)c(-c4c(C)ccc5[nH]nc(N)c45)c(Cl)cc23)C[C@@H]1C [Compound 41, 1-((2S,6R)-4-(7-(3-amino-5-methyl-1H-indazol-4-yl)-6-chloro-2-(3-(dimethylamino)azetidin-1-yl)-8-fluoroquinazolin-4-yl)-2,6-dimethylpiperazin-1-yl)prop-2-en-1-one] as the compound, how does the Binding % read?
**A.** Its Binding % is “+++ (+++ indicates binding activity greater than 80%)”.

**Q.** With C=CC(=O)N1C[C@H](C)N(c2nc(N3CC(N(C)C)C3)nc3c(F)c(-c4c(C)ccc5[nH]nc(N(C)C)c45)c(Cl)cc23)C[C@H]1C [Compound 42, 1-((2R,5S)-4-(6-chloro-7-(3-(dimethylamino)-5-methyl-1H-indazol-4-yl)-2-(3-(dimethylamino)azetidin-1-yl)-8-fluoroquinazolin-4-yl)-2,5-dimethylpiperazin-1-yl)prop-2-en-1-one] as the compound, how does the Binding % read?
**A.** The Binding % was “+ (+ indicates binding activity greater than 0% and up to 50%)”.

**Q.** C=CC(=O)N1CC2CCC(C1)N2c1nc(N2CC(N(C)C)C2)nc2c(F)c(-c3c(C)ccc4[nH]nc(N)c34)c(Cl)cc12 [Compound 43, 1-((1R,5S)-8-(7-(3-amino-5-methyl-1H-indazol-4-yl)-6-chloro-2-(3-(dimethylamino)azetidin-1-yl)-8-fluoroquinazolin-4-yl)-3,8-diazabicyclo[3.2.1]oc-tan-3-yl)prop-2-en-1-one] was tested. Which Binding % did it give?
**A.** The Binding % was “+ (+ indicates binding activity greater than 0% and up to 50%)”.

**Q.** How did the Binding % turn out when C=CC(=O)N1C[C@H](C)N(c2nc(N3CC(N(C)C)C3)nc3c(F)c(-c4cccc5ncccc45)c(Cl)cc23)C[C@H]1C [Compound 44, 1-((2R,5S)-4-(6-chloro-2-(3-(dimethylamino)azetidin-1-yl)-8-fluoro-7-(quinolin-5-yl)quinazolin-4-yl)-2,5-dimethylpiperazin-1-yl)prop-2-en-1-one] was run?
**A.** Its Binding % is “++ (++ indicates binding activity from 50 to 80%)”.

**Q.** With C=CC(=O)N1C[C@@H](C)N(c2nc(N3CC(N(C)C)C3)nc3c(F)c(-c4c(C)ccc5[nH]nc(N)c45)c(Cl)cc23)[C@@H](C)C1 [Compound 45, 1-((3R,5S)-4-(7-(3-amino-5-methyl-1H-indazol-4-yl)-6-chloro-2-(3-(dimethylamino)azetidin-1-yl)-8-fluoroquinazolin-4-yl)-3,5-dimethylpiperazin-1-yl)prop-2-en-1-one] as the compound, how does the Binding % read?
**A.** The Binding % was “+++ (+++ indicates binding activity greater than 80%)”.

**Q.** How did the Binding % turn out when C=CC(=O)N1C[C@H](C)N(c2nc(N3CC(N(C)C)C3)nc3c(F)c(-c4c(C)ccc5[nH]nc(NCC)c45)c(Cl)cc23)C[C@H]1C [Compound 46, 1-((2R,5S)-4-(6-chloro-2-(3-(dimethylamino)azetidin-1-yl)-7-(3-(ethylamino)-5-methyl-1H-indazol-4-yl)-8-fluoroquinazolin-4-yl)-2,5-dimethylpiperazin-1-yl)prop-2-en-1-one] was run?
**A.** Its Binding % is “++ (++ indicates binding activity from 50 to 80%)”.
